From patent publication US20040058948A1, “Mappicine analogs, methods of inhibiting retroviral reverse transcriptase and methods of treating retroviruses” (priority 2002, published 2004)

Columns and labels:
[1] = target: RNase H activity of HIV reverse transcriptase (Human immunodeficiency virus type 1 group M subtype B, UniProt P04585); assay: Fluorescence (FRET)-based RNase H activity assay of HIV reverse transcriptase; format: biochemical, HIV-1; parameters: final concentration of 2.5 nM of the p51/p66 RT heterodimer in the assay; made in house; conditions: 10 μM inhibitor concentration; activity with analog / without analog x 100
Protocol: Recently, a fluorescence-based assay to perform preliminary screens in search of HIV RNase H inhibitors has been developed. The assay, which is carried out in 96-well microplates and is adaptable to robotics, is the first high-throughput screen for RNase H and is described in further detail in the Experimental section. HIV-1 RT and human RNase H were cloned, and thus comparative analysis of inhibitor action could be conducted simultaneously.
The assay for RNase H activity of HIV reverse transcriptase was the fluorescence-based assay described in detail in the Experimental section and discussed in U.S. Provisional Patent Application Serial No. 60/318,359. Assays were carried out in the absence and in the presence of mappicine analogs (10 μM final concentration). The results are reported as % residual activity, which is the RNase H activity of the enzyme in the presence of the mappicine analog divided by the RNase H activity of the enzyme in the absence of the mappicine analog, multiplied by 100. Alternatively, the results are reported as % inhibition, which is calculated as the ratio of the RNase H activity of the enzyme in the presence of the mappicine analog to the enzyme activity in the absence of the mappicine analog, multiplied by 100, and then subtracting this number from 100.
Assay for Ribonuclease H Activity Based on Fluorescence Resonance Energy Transfer (FRET)
Preparation of the Fluorophore-RNA/Quencher-DNA Hybrid Duplex Substrate.
The RNA/DNA hybrid duplex substrate for use in the assay comprises an RNA oligonucleotide of sequence 5′-GAU CUG AGC CUG GGA GCU-3′, modified at the 3′-end with Aminolink-2 and derivatized with fluorescein isothiocyanate, to provide a modified RNA oligonucleotide of the sequence 5′-GAU CUG AGC CUG GGA GCU-fluorescein-3′, annealed to a complementary DNA oligonucleotide of the sequence 5′-AGC TCC CAG GCT CAG ATC-3′ modified at the 5′-end with Aminolink-2 and derivatized with the FRET acceptor DABCYL succinimidyl ester, to provide a modified DNA oligonucleotide of the sequence 5′-DABCYL-AGC TCC CAG GCT CAG ATC-3′.
To prepare the 3′-fluorescein-RNA/5′-DABCYL-DNA hybrid duplex substrate, a known amount of 3′-fluorescein-RNA was dissolved in 20 mM Tris buffer (pH 8.0, 37° C.) to provide a final concentration of 5 μM. Two equivalents of the 5′-DABCYL-DNA oligonucleotide were added, and the mixture was heated to 90° C. for 5 min and cooled slowly to room temperature to allow duplex formation. The positioning of the fluorescein donor at the 3′-end of the RNA oligonucleotide and the DABCYL acceptor at the 5′-end of the DNA oligonucleotide provides a very close proximity of the donor and acceptor that results in a very intense quenching of the fluorescein emission in the intact RNA/DNA hybrid duplex substrate due to the spectral overlap of the fluorescence emission of fluorescein with the absorption spectrum of DABCYL. In addition, DABCYL is non-fluorescent, and thus cannot contribute any light emission. Both of these factors result in a very low background and provide a high signal-to-noise in the assay measurements. The ratio of the donor fluorescence in the absence and in the presence of its quencher is approximately fifteen-fold.
Microplate Assay Protocol for the Measurement of RNase H Activity Using the RNA/DNA Hybrid Duplex Substrate.
Reaction assay mixtures contained 5 μl of a stock solution of 2.5 μM RNA/DNA hybrid duplex substrate added to 85 μl of assay buffer (50 mM Tris, pH 8.0, 37° C., containing 60 mM KCl and 2.5 mM MgCl2), prepared in the wells of a 96-well fluorescence microtiter plate, and warmed to 37° C. using the temperature control of the SpectraMax Gemini XS microplate spectrofluorometer (Molecular Devices). Reactions were started by the addition of 5 μl of a solution of recombinant HIV-1 reverse transcriptase (usually providing a final concentration of 2.5 nM of the p51/p66 RT heterodimer in the assay), and mixing using the automatic mixing function of the microplate spectrofluorometer. […]

[2] = target: T1, RNA-dependent DNA polymerase activity of HIV reverse transcriptase (Human immunodeficiency virus type 1 group M subtype B, UniProt P04585); assay: RNA-dependent DNA polymerase activity assay of HIV reverse transcriptase; format: biochemical, HIV-1; conditions: 10 μM inhibitor concentration; activity with analog / without analog x 100
T1 construct: made in house
Protocol: In separate, representative assays, mappicine analogs were tested for their ability to inhibit the RNA-dependent DNA polymerase activity of HIV reverse transcriptase and for their ability to inhibit the RNase H activity of HIV reverse transcriptase. The assay for RNA-dependent DNA polymerase activity is discussed in Borkow, G. et al., “Inhibition of the Ribonuclease H and DNA Polymerase Activities of HIV-1 Reverse Transcriptase by N-(4-tert-Butylbenzoyl)-2-hydroxy-1-naphthaldehyde Hydrazone,” Biochemistry 1997, 36, 3179-3185, a copy of which is attached hereto, and the disclosure of which is incorporated herein by reference. Assays were carried out in the absence and in the presence of mappicine analogs (10 μM final concentration). The results are reported as % residual activity, which is the RNA-dependent DNA polymerase activity of the enzyme in the presence of the mappicine analog divided by the RNA-dependent activity of the enzyme in the absence of the mappicine analog, multiplied by 100.

Row | SMILES | Residual activity (%) RNase H [1] [%] | Residual activity (%) Polymerase [2] [%]
1 | CCC(O)c1cc2n(c(=O)c1C)Cc1c-2nc2ccccc2c1-c1ccccc1 (racemic) [3Aα] | 97 | 90
2 | Cc1c(C(O)C(C)(C)C)cc2n(c1=O)Cc1c-2nc2ccccc2c1-c1ccccc1 (racemic) [3Aβ] | 95 | 54
3 | Cc1c(C(O)CCC2CCCCC2)cc2n(c1=O)Cc1c-2nc2ccccc2c1-c1ccccc1 (racemic) [3Aδ] | 104 | 32
4 | CCC(O)c1cc2n(c(=O)c1C)Cc1c-2nc2ccc(F)cc2c1-c1ccccc1 (racemic) [3Bα] | 83 | 54
5 | Cc1c(C(O)C(C)(C)C)cc2n(c1=O)Cc1c-2nc2ccc(F)cc2c1-c1ccccc1 (racemic) [3Bβ] | 75 | 78
6 | Cc1c(C(O)CCC2CCCCC2)cc2n(c1=O)Cc1c-2nc2ccc(F)cc2c1-c1ccccc1 (racemic) [3Bδ] | 99 | 81
7 | Cc1c(C(O)Cc2ccccc2)cc2n(c1=O)Cc1c-2nc2ccc(F)cc2c1-c1ccccc1 (racemic) [3Bε] | 91 | 28
8 | CCC(O)c1cc2n(c(=O)c1C)Cc1c-2nc2ccc(C)cc2c1-c1ccccc1 (racemic) [3Cα] | 96 | 64
9 | Cc1ccc2nc3c(c(-c4ccccc4)c2c1)Cn1c-3cc(C(O)C(C)(C)C)c(C)c1=O (racemic) [3Cβ] | 84 | 70
10 | Cc1ccc2nc3c(c(-c4ccccc4)c2c1)Cn1c-3cc(C(O)Cc2ccccc2)c(C)c1=O (racemic) [3Cε] | 101 | 76
11 | CCC(O)c1cc2n(c(=O)c1C)Cc1c-2nc2ccc(OC)cc2c1-c1ccccc1 (racemic) [3Dα] | 78 | 69
12 | COc1ccc2nc3c(c(-c4ccccc4)c2c1)Cn1c-3cc(C(O)CCC2CCCCC2)c(C)c1=O (racemic) [3Dδ] | 67 | 60
13 | COc1ccc2nc3c(c(-c4ccccc4)c2c1)Cn1c-3cc(C(O)Cc2ccccc2)c(C)c1=O (racemic) [3Dε] | 79 | 61
14 | CCC(O)c1cc2n(c(=O)c1C)Cc1c-2nc2ccccc2c1[Si](C)(C)C(C)(C)C (racemic) [4Aα] | 104 | 67
15 | Cc1c(C(O)C(C)(C)C)cc2n(c1=O)Cc1c-2nc2ccccc2c1[Si](C)(C)C(C)(C)C (racemic) [4Aβ] | 101 | 71
16 | Cc1c(C(O)CCC2CCCCC2)cc2n(c1=O)Cc1c-2nc2ccccc2c1[Si](C)(C)C(C)(C)C (racemic) [4Aδ] | 95 | 45
17 | Cc1c(C(O)Cc2ccccc2)cc2n(c1=O)Cc1c-2nc2ccccc2c1[Si](C)(C)C(C)(C)C (racemic) [4Aε] | 93 | 83
18 | CCC(O)c1cc2n(c(=O)c1C)Cc1c-2nc2ccc(F)cc2c1[Si](C)(C)C(C)(C)C (racemic) [4Bα] | 108 | 98
19 | Cc1c(C(O)C(C)(C)C)cc2n(c1=O)Cc1c-2nc2ccc(F)cc2c1[Si](C)(C)C(C)(C)C (racemic) [4Bβ] | 113 | 49
20 | Cc1ccc2nc3c(c([Si](C)(C)C(C)(C)C)c2c1)Cn1c-3cc(C(O)CCC2CCCCC2)c(C)c1=O (racemic) [4Cδ] | 109 | 61
21 | COc1ccc2nc3c(c([Si](C)(C)C(C)(C)C)c2c1)Cn1c-3cc(C(O)C(C)(C)C)c(C)c1=O (racemic) [4Dβ] | 91 | 47
